Test results from US20060018978A1, “Botanical compositions having hypoglycemic, hypolipidemic and antimicrobial activities for maintaining good health in normal person and diabetic patient” (priority 2004, published 2006).

How the values were obtained:
[1] = system: Pseudomonas aeruginosa ATCC 9721; experiment: Agar Diffusion Test, Ps. aeruginosa; assay type: cell-based; details: mean ± S.E.M
From the text: (§1) The dried plant extract is ground to fine powder and sieved to obtain uniform powder size and used for pharmaceutical preparation. […] (1991) Antibiotics in Laboratory Medicine, 3rd ed. The pathogenic microbes inhibited by the crude water extract of M. coromandelianum are Staphylococcus aureus, and Salmonella typhimurium. […] [table]

[2] = system: Escherichia coli ATCC 25922; experiment: Agar Diffusion Test, E. coli; assay type: cell-based; details: mean ± S.E.M
From the text: as §1

[3] = system: Salmonella typhimurium ATCC 14028; experiment: Agar Diffusion Test, S. typhimurium; assay type: cell-based; details: mean ± S.E.M
From the text: as §1

[4] = system: Staphylococcus aureus ATCC 6538P; experiment: Agar Diffusion Test, S. aureus; assay type: cell-based; details: mean ± S.E.M
From the text: as §1

[5] = system: Klebsiella pneumoniae ATCC 10031; experiment: Agar Diffusion Test, K. pneumoniae; assay type: cell-based; details: mean ± S.E.M
From the text: as §1

[6] = system: streptozotocin-induced diabetic rats; experiment: Biochemical analysis of serum in diabetic rats at day 14 after daily feeding; assay type: in vivo, rat; details: day 14, Standard: injected 5 IU/Kg/day, mean ± S.E.M.

With Gentamicin the “Diameter of inhibition zone” value ([1]; 10 μg/ml) was 8.1 ± 0.00 mm, the “Diameter of inhibition zone” value ([1]; 20 μg/ml) was 12.8 ± 0.14 mm and the “Diameter of inhibition zone” value ([2]; 10 μg/ml) was 1.56 ± 0.07 mm. For the same substance, the “Diameter of inhibition zone” value ([2]; 20 μg/ml) was 3.78 ± 0.07 mm, the “Diameter of inhibition zone” value ([3]; 10 μg/ml) was 14.28 ± 0.07 mm and the “Diameter of inhibition zone” value ([3]; 20 μg/ml) was 15.88 ± 0.141 mm. The “Diameter of inhibition zone” value ([4]; 10 μg/ml) was 10.00 ± 0.00 mm, the “Diameter of inhibition zone” value ([4]; 20 μg/ml) was 12.77 ± 0.14 mm and the “Diameter of inhibition zone” value ([5]; 10 μg/ml) was 16.9 ± 0.00 mm. For the same substance, the “Diameter of inhibition zone” value ([5]; 20 μg/ml) was 26.57 ± 0.28 mm.

Insulin gave a Cholesterol [6] of 225.96 ± 5.51 mg %, a Glucose [6] of 409.85 ± 12.52 mg % and a Triglycerides [6] of 388.10 ± 61.85 mg %.
